“And” between values parts separate entries of the source, which are not always exact repeats. Equal values may be shown once.
Conditions: Liquid

CC(C)CCCC(C)CCCC(C)CCCCC(C)CCCC(C)CCCC(C)C (configuration not stated) [2,6,10,15,19,23-hexamethyltetracosane]
viscosity
Conditions	Falling or rolling sphere viscometry	quartz resonator viscometer
293.15 K, 10220 kPa	–	45.8 mPa·s and 46.2 mPa·s
293.15 K, 20250 kPa	–	57.9 mPa·s and 58.5 mPa·s
293.15 K, 30090 kPa	–	70.8 mPa·s and 71.5 mPa·s
293.15 K, 40100 kPa	–	87 mPa·s and 87.9 mPa·s
293.15 K, 50070 kPa	–	108.1 mPa·s and 109.2 mPa·s
293.15 K, 60060 kPa	–	130 mPa·s and 131.3 mPa·s
293.15 K, 71000 kPa	–	160.4 mPa·s and 162.1 mPa·s
293.15 K, 80600 kPa	–	180.6 mPa·s and 182.4 mPa·s
303.15 K, 11300 kPa	–	28.6 mPa·s and 28.5 mPa·s
303.15 K, 19900 kPa	–	34.1 mPa·s and 34 mPa·s
303.15 K, 20000 kPa	34.78 mPa·s	–
303.15 K, 31400 kPa	–	43.9 mPa·s and 43.8 mPa·s
303.15 K, 40000 kPa	51.64 mPa·s	–
303.15 K, 40600 kPa	–	53 mPa·s and 52.9 mPa·s
303.15 K, 50900 kPa	–	64.7 mPa·s and 64.6 mPa·s
303.15 K, 60000 kPa	74.96 mPa·s	78.3 mPa·s and 78.1 mPa·s
303.15 K, 71700 kPa	–	94.7 mPa·s and 94.5 mPa·s
303.15 K, 80000 kPa	107.09 mPa·s	107.8 mPa·s and 107.5 mPa·s
303.15 K, 100000 kPa	146.47 mPa·s	–
303.15 K, 120000 kPa	210.53 mPa·s	–
303.15 K, 140000 kPa	305.4 mPa·s	–
303.15 K, 160000 kPa	422.48 mPa·s	–
313.15 K, 10000 kPa	16.8 mPa·s	–
313.15 K, 10110 kPa	–	18.2 mPa·s and 18.3 mPa·s
313.15 K, 15000 kPa	18.9 mPa·s	–
313.15 K, 20170 kPa	–	22.4 mPa·s and 22.6 mPa·s
313.15 K, 25000 kPa	23.8 mPa·s	–
313.15 K, 29620 kPa	–	26.6 mPa·s and 26.9 mPa·s
313.15 K, 40550 kPa	–	32.5 mPa·s and 32.8 mPa·s
313.15 K, 49650 kPa	–	38.5 mPa·s and 38.8 mPa·s
313.15 K, 50000 kPa	39.2 mPa·s and 36.3 mPa·s	–
313.15 K, 60500 kPa	–	47 mPa·s and 47.4 mPa·s
313.15 K, 70400 kPa	–	55.9 mPa·s and 56.4 mPa·s
313.15 K, 75000 kPa	61.2 mPa·s and 59.6 mPa·s	–
313.15 K, 80670 kPa	–	66.4 mPa·s and 66.9 mPa·s
313.15 K, 100000 kPa	92.3 mPa·s and 91.3 mPa·s	–
313.15 K, 125000 kPa	136.4 mPa·s and 134.8 mPa·s	–
313.15 K, 150000 kPa	199 mPa·s and 194.1 mPa·s	–
313.15 K, 175000 kPa	275.3 mPa·s	–
313.15 K, 200000 kPa	386.2 mPa·s	–
313.15 K, 225000 kPa	537.7 mPa·s	–
313.15 K, 250000 kPa	744.7 mPa·s	–
323.15 K, 10250 kPa	–	12.8 mPa·s and 12.7 mPa·s
323.15 K, 20000 kPa	15.77 mPa·s	–
323.15 K, 20340 kPa	–	15.5 mPa·s
323.15 K, 30170 kPa	–	18.4 mPa·s
323.15 K, 40000 kPa	22.36 mPa·s	–
323.15 K, 40160 kPa	–	21.8 mPa·s
323.15 K, 50130 kPa	–	25.8 mPa·s
323.15 K, 60000 kPa	31.17 mPa·s	–
323.15 K, 60110 kPa	–	30.8 mPa·s and 30.8 mPa·s
323.15 K, 70120 kPa	–	36.2 mPa·s
323.15 K, 80000 kPa	42.71 mPa·s	–
323.15 K, 80060 kPa	–	43 mPa·s
323.15 K, 100000 kPa	57.75 mPa·s	–
323.15 K, 120000 kPa	77.38 mPa·s	–
323.15 K, 140000 kPa	102.35 mPa·s	–
323.15 K, 160000 kPa	135.1 mPa·s	–
323.15 K, 180000 kPa	175.94 mPa·s	–
323.15 K, 200000 kPa	228.18 mPa·s	–

From the NIST ThermoML archive (doi:10.1016/j.jct.2013.10.001)
